Entries after “also recorded” stand apart in the source; their conditions may differ.
How the values were obtained:
heparanase = target: T1, heparanase (Rattus norvegicus, UniProt Q71RP1); assay: Heparanase activity assay in rat lung tissue after 1 h warm ischemia; assay type: in vivo; details: rat donors given heparin 300 IU or NAH 300 μg i.v. 5 min before 1 h warm ischemia; vs untreated control
T1 construct: isolated lung tissue lysate was applied to biotinylated heparan sulfate-coated wells; from tissue; host or cells: rat (Lewis) lung tissue lysate
T1 sequence (Q71RP1 29-536): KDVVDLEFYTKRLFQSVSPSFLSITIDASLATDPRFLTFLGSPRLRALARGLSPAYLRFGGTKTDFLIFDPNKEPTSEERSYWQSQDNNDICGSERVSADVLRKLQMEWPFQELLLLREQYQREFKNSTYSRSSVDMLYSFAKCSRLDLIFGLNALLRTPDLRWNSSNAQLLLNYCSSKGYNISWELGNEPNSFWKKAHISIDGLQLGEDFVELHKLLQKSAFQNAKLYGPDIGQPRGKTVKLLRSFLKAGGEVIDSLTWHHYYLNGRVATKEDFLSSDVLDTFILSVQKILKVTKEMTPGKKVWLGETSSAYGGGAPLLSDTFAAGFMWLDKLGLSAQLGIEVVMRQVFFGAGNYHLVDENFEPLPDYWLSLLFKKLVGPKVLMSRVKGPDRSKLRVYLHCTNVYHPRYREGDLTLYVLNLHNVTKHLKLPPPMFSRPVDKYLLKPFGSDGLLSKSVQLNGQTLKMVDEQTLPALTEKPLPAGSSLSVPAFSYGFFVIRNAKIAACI
Protocol: Models of lungs with damaged or preserved eGC and rat orthotopic left lung transplantation. Rats were sedated with 4% isoflurane via inhalation for tracheostomy and then placed on a ventilator. They received 5% isoflurane with 100% O2 via inhalation through the ventilator for 15 min to induce a deep state of anesthesia that causes arrest of spontaneous breathing. The rats were disconnected from the ventilator 5 min after intravenous administration of heparin (300 IU), a heparin derivative without anti-coagulant properties (300 μg; N-acetyl heparin (NAH) (Millipore Sigma, Burlington, MA)), or saline (300 μl, control) through the jugular vein. Cardiac activity and blood oxygen saturation were monitored after disconnection from ventilator until cardiac arrest. One hour after induction of ischemia, a median thoracotomy was performed, and blood was flushed from the lungs with cold, low potassium dextran solution (PERFADEX; XVIVO Perfusion AB) through the pulmonary artery. […]
Heparanase activity assay. Heparanase activity was measured using a heparanase assay kit (AMS Bio-technology (Europe) Ltd., Abingdon, UK) to quantitate heparan sulfate degradation according to the manufacturer's instructions. […] After incubation and washing, the remaining heparan sulfate was detected using a biotin-streptavidin-HRP system.

IL-6, IL-1β, MMP-9 mRNA = assay: Real-time RT-PCR in lung grafts 2 h after transplantation; assay type: in vivo, rat; details: for IL-1β mRNA expression / IL-6 mRNA expression: graft 2 h after reperfusion, vs control lung grafts; for MMP-9 mRNA expression: graft 2 h after transplantation, vs control
Protocol: Real-time RT PCR. Lung tissues were collected after EVLP or 2 h after transplantation. Total RNA was extracted from the graft using TRIzol reagent (Life Technologies, Inc. Grand Island, NY) according to the manufacturer's instructions and purified by ethanol precipitation. RNA content was measured using 260/280 nm UV spectrophotometry.

[1] = tested on: syndecan-1, glycosaminoglycans (GAGs); assay: Glycocalyx components in lung grafts 2 h after transplantation (western blot, DMMB); assay type: in vivo, rat; details: vs control; for GAGs remaining in the lung tissue: DMMB assay, 2 h after transplant; for syndecan-1 protein expression in the plasma membrane: western blot, 2 h after transplantation
Protocol: Western blotting. Whole cell lysate was isolated with 2% SDS buffer (2% SDS, 50 mM Tris-HCl pH 6.8, 10% glycerol) supplemented with protease inhibitors (Sigma-Aldrich). Membrane protein fractions were obtained with the Mem-PER Plus Membrane Protein Extraction Kit (Thermo Scientific) following manufacturer's instructions. Proteins were resolved on 10% SDS-PAGE followed by transfer to 0.2 μm nitrocellulose membranes (Bio-Rad Laboratories, Hercules, CA, USA). Membranes were blocked with 5% non-fat milk at room temperature for 2 h and then incubated with the following primary antibodies at 4° C. overnight: anti-syndecan-1 (1:1000; Santa Cruz Biotechnology, Inc., Dallas, Tx, USA), anti-heparanase-1 (1:1000; Boster Biological, Pleasanton, CA, USA), anti-VE-Cadherin (1:1000; Abcam), anti-HSP90 (1:1000; Abcam) and anti-@-actin (1:50,000; Sigma-Aldrich). Membranes were then incubated with either anti-mouse (1:5000) or anti-rabbit (1:3000) horse-radish peroxidase (HRP)-conjugated polyclonal secondary antibody (Abcam, Cambridge, MA, USA), or IRDye 800CW anti-rabbit IgG or 680CW anti-mice secondary antibody (LI-COR Biosciences, Lincoln, NE, USA) at room temperature for 2 h. Proteins were visualized using an enhanced chemiluminescence kit (Abcam), and protein bands were imaged and analyzed using Image Lab software (Version 6.0; Bio-Rad Laboratories, Inc.) or Odyssey 9120 Infrared Imaging System (LI-COR Biosciences).
Determination of glycocalyx components in rat lung grafts. For rat lung tissue, syndecan-1 released into the perfusate during EVLP was measured with a rat-specific ELISA (Immunotag Rat SDC1 (Syndecan-1) ELISA, G-Biosciences, St. Louis, MO). Glycocalyx glycosaminoglycans (GAGs) were quantitated using the 1,9-dimethylmethylene blue (DMMB, Millipore Sigma) method with modifications. A 1 L solution of DMMB (pH˜3.0) was prepared by dissolving 16 mg DMMB in distilled H2O containing 3.04 g/A glycine, 1.6 g/A NaCl and 95 ml 0.1 M acetic acid. Briefly, 1 ml DMMB solution was added to 20 μl lung tissue lysate then incubated at room temperature for 1 h on a tube rotator. The tubes were then centrifuged at 14,000 rpm for 15 min at 4° C. Supernatants were carefully decanted, 200 μL sodium lauryl sulfate buffer (2.08 mM) was added to each pellet, and the tubes were vortexed until GAG-DMMB pellets were no longer visible. GAG content in each sample was measured spectrophotometrically at 656 nm.

MMP-2 = assay: Gelatin zymography of EVLP perfusate, donor-pretreated lungs; assay type: in vivo, rat; details: donor pre-treatment, vs control
Protocol: Gelatin zymography. Gelatin zymography was performed to measure secreted MMP-2 and MMP-9 activity in EVLP perfusate and to measure endogenous MMP-2 and 9 activity in lung tissue before transplantation. Briefly, lung tissue before transplant was homogenized in cold PBS. Perfusate samples (20 μl) or tissue lysates were mixed with 2× non-reducing SDS sample buffer were loaded onto a 10% polyacrylamide gel containing 0.1% SDS and 0.1% gelatin. After electrophoresis to separate the proteins, the gel was washed in renaturing buffer (Novex Invitrogen) at room temperature, and then incubated in developing buffer (Novex Invitrogen) at 37° C. overnight (˜16-18 h). The next day, the gel was stained with Coomassie Brilliant Blue R-250 (Bio-Rad) and imaged (ChemiDoc, Bio-Rad). Enzyme activity, visualized as clear bands against the dark blue background, was quantified using Image-J (NIH).

heparanase activity in lung tissue (heparanase) | Substance | IL-1β mRNA expression (IL-6, IL-1β, MMP-9 mRNA) | IL-6 mRNA expression (IL-6, IL-1β, MMP-9 mRNA) | MMP-9 mRNA expression (IL-6, IL-1β, MMP-9 mRNA) | GAGs remaining in the lung tissue [1] | syndecan-1 protein expression in the plasma membrane [1] | MMP-2 activity in EVLP perfusate (MMP-2)
decreased; also recorded: inhibited | heparin | significantly lower | significantly lower | significantly lower | significantly more GAGs remained | markedly higher | significantly less
inhibited | N-acetyl heparin [NAH] | significantly lower | significantly lower | significantly lower | significantly more GAGs remained | markedly higher | significantly less

Reference: patent publication US20250204515A1, “Heparanase Inhibition for Graft Protection” (University of Pittsburgh - Of the Commonwealth System of …, priority 2022, published 2025)
